Source: PubChem BioAssay (NCI)
“And” between values parts separate entries of the source, which are not always exact repeats. Equal entries are not always repeated.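 All cell lines were grown in 96-well plates and treated with compound for 48 hours. Here, GI50 denotes the concentration required for 50% inhibition of growth. TGI: concentration producing complete growth inhibition.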

Assays:
Assay in all cases: DTP human tumour cell line panel, 48 h
[1] = system: M14 melanoma
[2] = system: DU-145 prostate
[3] = system: MDA-MB-231 breast
[4] = system: 786-0 renal
[5] = system: SF-539 CNS
[6] = system: PC-3 prostate
[7] = system: HCC-2998 colon
[8] = system: T-47D breast
[9] = system: KM12 colon
[10] = system: EKVX NSCLC
[11] = system: HOP-92 NSCLC
[12] = system: ACHN renal
[13] = system: HS 578T breast
[14] = system: TK-10 renal
[15] = system: RXF-631 renal
[16] = system: LXFL 529 NSCLC
[17] = system: A498 renal
[18] = system: XF 498 CNS
[19] = system: SR leukemia
[20] = system: BT-549 breast
[21] = system: NCI-H522 lung
[22] = system: SNB-75 CNS
[23] = system: RXF 393 renal
[24] = system: SK-MEL-28 melanoma
[25] = system: HT29 colon
[26] = system: SK-OV-3 ovarian
[27] = system: MOLT-4 leukemia
[28] = system: SNB-78 CNS
[29] = system: M19-MEL melanoma
[30] = system: SK-MEL-2 melanoma
[31] = system: IGROV1 ovarian
[32] = system: NCI-H226 lung
[33] = system: HL-60(TB) leukemia
[34] = system: HOP-18 NSCLC
[35] = system: CCRF-CEM leukemia
[36] = system: OVCAR-4 ovarian
[37] = system: K-562 leukemia
[38] = system: CAKI-1 renal
[39] = system: LOX IMVI melanoma
[40] = system: SNB-19 CNS
[41] = system: NCI-H23 lung
[42] = system: SF-268 CNS
[43] = system: RPMI-8226 leukemia
[44] = system: UACC-257 melanoma
[45] = system: UO-31 renal
[46] = system: U251 CNS
[47] = system: SF-295 CNS
[48] = system: UACC-62 melanoma
[49] = system: HOP-62 NSCLC
[50] = system: DLD-1 colon
[51] = system: OVCAR-5 ovarian
[52] = system: MALME-3M melanoma
[53] = system: COLO 205 colon
[54] = system: DMS 273 small cell lung
[55] = system: OVCAR-8 ovarian
[56] = system: OVCAR-3 ovarian
[57] = system: SN12C renal
[58] = system: HCT-15 colon
[59] = system: DMS 114 small cell lung

With COc1cccc2c1C(=O)c1c(O)c3c(c(O)c1C2=O)C[C@@](O)(C(=O)CO)C[C@@H]3OC1CC(N2CCOCC2C#N)C(O)C(C)O1 (stereo not given in full) the GI50 [1] was 0.0812 nM, the TGI [1] was 0.108 nM and 0.527 nM and the TGI [2] was 20 nM. For the same molecule, the TGI [3] was 0.812 nM, the GI50 [4] was 0.0534 nM and 0.0331 nM and the TGI [4] was 2.24 nM and 1.51 nM and 4.47 nM. The TGI [5] was 0.1 nM and 0.109 nM, the TGI [6] was 0.124 nM and 1.12 nM and the TGI [7] was 0.208 nM and 0.237 nM. For the same molecule, the TGI [8] was 3.27 nM and 5.81 nM, the TGI [9] was 1.55 nM and 0.377 nM and 2.59 nM and the TGI [10] was 0.75 nM and 0.901 nM. For the same molecule, the TGI [11] was 0.614 nM and 0.566 nM, the GI50 [12] was 0.078 nM and 0.023 nM and the TGI [13] was 0.0535 nM and 0.221 nM. The GI50 [14] was 0.278 nM and 0.374 nM, the TGI [15] was 2.27 nM and 21.5 nM and the GI50 [16] was 0.245 nM. For the same molecule, the TGI [17] was 1.04 nM and 0.139 nM, the TGI [18] was 0.397 nM and 0.282 nM and the GI50 [19] was 0.0468 nM. For the same molecule, the TGI [20] was 0.234 nM and 0.23 nM, the TGI [21] was 0.411 nM and 0.129 nM and the TGI [22] was 0.11 nM and 0.0613 nM. The TGI [23] was 0.0982 nM and 0.0513 nM and the TGI [24] was 0.481 nM and 0.552 nM.

With Cc1nc2c(sc(=S)n2-c2ccccc2)c2nc3ccccc3n12 the TGI [25] was > 100000 nM, the TGI [26] was > 100000 nM and the TGI [27] was > 100000 nM. The TGI [1] was > 100000 nM, the TGI [28] was > 100000 nM and the TGI [29] was > 100000 nM. The TGI [30] was > 100000 nM, the TGI [4] was > 100000 nM and the TGI [31] was > 100000 nM. For the same molecule, the TGI [5] was > 100000 nM, the TGI [32] was > 100000 nM and the TGI [33] was > 100000 nM. The TGI [34] was > 100000 nM, the TGI [35] was > 100000 nM and the TGI [36] was > 100000 nM. For the same molecule, the TGI [37] was > 100000 nM, the TGI [38] was > 100000 nM and the TGI [7] was > 100000 nM. The TGI [39] was > 100000 nM, the TGI [9] was > 100000 nM and the TGI [10] was > 100000 nM. The TGI [40] was > 100000 nM, the TGI [12] was > 100000 nM and the TGI [41] was > 100000 nM. For the same molecule, the TGI [42] was > 100000 nM, the TGI [43] was > 100000 nM and the TGI [44] was > 100000 nM. The TGI [14] was > 100000 nM, the TGI [15] was > 100000 nM and the TGI [45] was > 100000 nM. For the same molecule, the TGI [46] was > 100000 nM, the TGI [16] was > 100000 nM and the TGI [47] was > 100000 nM. For the same molecule, the TGI [48] was > 100000 nM, the TGI [49] was > 100000 nM and the TGI [50] was > 100000 nM. The TGI [51] was > 100000 nM, the TGI [52] was > 100000 nM and the TGI [21] was > 100000 nM. The TGI [53] was > 100000 nM, the TGI [54] was > 100000 nM and the TGI [22] was > 100000 nM. The TGI [55] was > 100000 nM, the TGI [56] was > 100000 nM and the TGI [57] was > 100000 nM. For the same molecule, the TGI [58] was > 100000 nM, the TGI [59] was > 100000 nM and the TGI [23] was > 100000 nM. The TGI [24] was > 100000 nM.
